US6022495A, “Photochromic benzopyrano-fused naphthopyrans” (Transitions Optical, Inc., priority 1998, dated 2000)

Assays:
[1] = Visible lambda max of the activated form in polymer test squares (Varian Cary 3 UV-Visible spectrophotometer); format: physicochemical; conditions: activated (colored) form in test square of BPA 2EO DMA / poly(ethylene glycol) 600 dimethacrylate, 1.5×10^-3 molal
Method: (§1) Testing was done with the photochromic compounds prepared in Examples 1-11 in the following manner. A quantity of each photochromic compound calculated to yield a 1.5×10^-3 molal solution was added to a flask containing 50 grams of a monomer blend of 4 parts ethoxylated bisphenol A dimethacrylate (BPA 2EO DMA), 1 part poly(ethylene glycol) 600 dimethacrylate, and 0.033 weight percent 2,2'-azobis(2-methyl propionitrile) (AIBN). Each photochromic compound was dissolved into the monomer blend by stirring and gentle heating. After a clear solution was obtained, it was poured into a flat sheet mold having the interior dimensions of 2.2 mm×6 inches (15.24 cm)×6 inches (15.24 cm). The mold was sealed and placed in a horizontal air flow, programmable oven programmed to increase the temperature from 40° C. to 95° C. over […], hold the temperature at 95° C. for 3 hours, lower it to 60° C. over a 2 hour interval and then hold at 60° C. for 16 hours. After the mold was opened, the polymer sheet was cut using a diamond blade saw into 2 inch (5.1 centimeters) test squares.
The Δ OD/min, which represents the sensitivity of the photochromic compound's response to UV light, was measured over the first five (5) seconds of UV exposure, then expressed on a per minute basis. The saturation optical density (Δ OD@ Saturation) was taken under identical conditions as the Δ OD/min, except UV exposure was continued for 15 minutes. The lambda max (Vis) is the wavelength in nanometers (nm) in the visible spectrum at which the maximum absorption of the activated (colored) form of the photochromic compound in a test square occurs. The lambda max (Vis) wavelength was determined by testing the photochromic test square polymerizates of Part A in a Varian Cary 3 UV-Visible spectrophotometer. The Bleach Rate (T 1/2) is the time interval in seconds for the absorbance of the activated form of the photochromic compound in the test squares to reach one half the highest absorbance at room temperature (72° F., 22.20C.) after removal of the source of activating light.

[2] = Photochromic response of polymer test squares on an optical bench; format: physicochemical; conditions: for ΔOD @ Saturation: UV exposure continued for 15 minutes; for ΔOD @ Saturation / Sensitivity ΔOD/min: 72° F. (22.2° C.); for Sensitivity ΔOD/min: first five (5) seconds of UV exposure, expressed per minute; for Bleach Rate T 1/2: time for absorbance of activated form to reach one half the highest absorbance at room temperature (72° F.) after removal of activating light
Method: as §1
The photochromic test squares prepared in Part A were tested for photochromic response on an optical bench. Prior to testing on the optical bench, the photochromic test squares were exposed to 365 nanometer ultraviolet light for about 15 minutes to activate the photochromic compounds and then placed in a 76° C. oven for about 15 minutes to bleach or inactivate the photochromic compounds. The test squares were then cooled to room temperature, exposed to fluorescent room lighting for at least 2 hours and then kept covered for at least 2 hours prior to testing on an optical bench maintained at 72° F. (22.2° C.). The bench was fitted with a 150 watt Xenon arc lamp, a remote controlled shutter, a copper sulfate bath acting as a heat sink for the arc lamp, a Schott WG-320 nm cut-off filter which removes short wavelength radiation; neutral density filter(s) and a sample holder in which the square to be tested was inserted. The power output of the optical bench, i.e., the dosage of light that the sample lens would be exposed to, was calibrated with a photochromic test square used as a reference standard. […] The UV-A detector was placed into the sample holder and the light output was measured. Adjustments to the power output were made by increasing or decreasing the lamp wattage or by adding or removing neutral density filters in the light path.
A monitoring, collimated beam of light from a tungsten lamp was passed through the square at a small angle (approximately […]) normal to the square. After passing through the square, the light from the tungsten lamp was directed to a detector through Spectral Energy Corp. GM-200 monochromator set at the previously determined visible lambda max of the photochromic compound being measured. The output signals from the detector were processed by a radiometer.
Change in optical density (ΔOD) was determined by inserting a test square in the bleached state into the sample holder, adjusting the transmittance scale to 100%, opening the shutter from the Xenon lamp to provide ultraviolet radiation to change the test square from the bleached state to an activated (i.e., darkened) state, measuring the transmittance in the activated state, and calculating the change in optical density according to the formula: ΔOD=log(100/% Ta), where % Ta is the percent transmittance in the activated state and the logarithm is to the base 10.
The Δ OD/min, which represents the sensitivity of the photochromic compound's response to UV light, was measured over the first five (5) seconds of UV exposure, then expressed on a per minute basis. The saturation optical density (Δ OD@ Saturation) was taken under identical conditions as the Δ OD/min, except UV exposure was continued for 15 minutes. […]

| SMILES | lambda max (Vis) [1] [nanometers] | ΔOD @ Saturation [2] | Sensitivity ΔOD/min [2] | Bleach Rate T 1/2 [2] [s] | further results |
| --- | --- | --- | --- | --- | --- |
| COc1ccc(C2(c3ccc(OC)cc3)C=Cc3c(c4c5ccccc5c(=O)oc4c4ccccc34)O2)cc1 [Compound 1A, 2,2-bis(4-methoxyphenyl)-10-oxo-2,10-dihydro[2]benzopyrano[4',3':3,4]naphtho(2,1-b)pyran] | 493 | 0.14 | 0.29 ΔOD/min | 18 |  |
| COc1ccc(C2(c3ccc(OC)cc3)C=Cc3c(c4ccccc4c4c3oc(=O)c3ccccc34)O2)cc1 [Compound 1B, 6,6-bis(4-methoxyphenyl)-10-oxo-6,10-dihydro[2]benzopyrano[3',4':3,4]naphtho(1,2-b)pyran] | 537 | 0.07 | 0.19 ΔOD/min | 24 |  |
| COc1ccc(C2(c3ccc(OC)cc3)C=Cc3c4c(c5ccccc5c3O2)-c2ccccc2CO4)cc1 [Compound 2, 6,6-bis(4-methoxyphenyl)-6,10-dihydro[2]benzopyrano[3'4':3,4]naphtho(1,2-b)pyran] |  |  |  |  | lambda max (Vis) ([1]; listed as 2A): 546 nanometers; lambda max (Vis) ([1]; listed as 2B): 432 nanometers; ΔOD @ Saturation ([2]; listed as 2A): 0.22; ΔOD @ Saturation ([2]; listed as 2B): 0.27; Sensitivity ΔOD/min ([2]; listed as 2A): 0.10 ΔOD/min; Sensitivity ΔOD/min ([2]; listed as 2B): 0.12 ΔOD/min; Bleach Rate T 1/2 ([2]; listed as 2A): 116 s; Bleach Rate T 1/2 ([2]; listed as 2B): 112 s |
| COc1ccc(C2(c3ccc(N4CCOCC4)cc3)C=Cc3c(c4c5ccccc5c(=O)oc4c4ccccc34)O2)cc1 (stereo not drawn) [Compound 3A, 2-(4-methoxyphenyl)-2-(4-morpholinophenyl)-10-oxo-2,10-dihydro[2]benzopyrano[4',3':3,4]naphtho(2,1-b)pyran] | 530 | 0.01 | 0.04 ΔOD/min | 3 |  |
| COc1ccc(C2(c3ccc(N4CCOCC4)cc3)C=Cc3c(c4ccccc4c4c3oc(=O)c3ccccc34)O2)cc1 (stereo not drawn) [Compound 3B, 6-(4-methoxyphenyl)-6-(4-morpholinophenyl)-10-oxo-6,10-dihydro[2]benzopyrano[3',4':3,4]naphtho(1,2-b)pyran] | 598 | 0.06 | 0.13 ΔOD/min | 39 |  |
| COc1ccc(C2(c3ccc(N4CCOCC4)cc3)C=Cc3c4c(c5ccccc5c3O2)-c2ccccc2C(C)(C)O4)cc1 (stereo not drawn) [Compound 4, 10,10-dimethyl-6-(4-methoxyphenyl)-6-(4-morpholinophenyl)-6,10-dihydro[2]benzopyrano[3',4':3,4]naphtho(1,2-b)pyran] |  |  |  |  | lambda max (Vis) ([1]; listed as 4A): 598 nanometers; lambda max (Vis) ([1]; listed as 4B): 472 nanometers; ΔOD @ Saturation ([2]; listed as 4A): 0.23; ΔOD @ Saturation ([2]; listed as 4B): 0.19; Sensitivity ΔOD/min ([2]; listed as 4A): 0.18 ΔOD/min; Sensitivity ΔOD/min ([2]; listed as 4B): 0.12 ΔOD/min; Bleach Rate T 1/2 ([2]; listed as 4A): 68 s; Bleach Rate T 1/2 ([2]; listed as 4B): 61 s |
| O=c1oc2c3ccccc3c3c(c2c2ccccc12)OC(c1ccccc1)(c1ccc(N2CCOCC2)cc1)C=C3 (stereo not drawn) [Compound 5A, 2-(4-morpholinophenyl)-2-phenyl-10-oxo-2,10-dihydro[2]benzopyrano[4',3':3,4]naphtho(2,1-b)pyran] | 570 | 0.12 | 0.21 ΔOD/min | 37 |  |
| COc1ccc(C2(c3ccc(OC)cc3)C=Cc3c(c4c5cc(OC)c(OC)cc5c(=O)oc4c4ccccc34)O2)cc1 [Compound 6A, 2,2-bis(4-methoxyphenyl)-12,13-dimethoxy-10-oxo-2,10-dihydro[2]benzopyrano[4',3':3,4]naphtho(2,1-b)pyran] | 477 | 0.13 | 0.19 ΔOD/min | 28 |  |
| COc1ccc(C2(c3ccc(OC)cc3)C=Cc3c(c4ccccc4c4c3oc(=O)c3cc(OC)c(OC)cc34)O2)cc1 [Compound 6B, 6,6-bis(4-methoxyphenyl)-12,13-dimethoxy-10-oxo-6,10-dihydro[2]benzopyrano[3',4':3,4]naphtho(1,2-b)pyran] | 569 | 0.10 | 0.22 ΔOD/min | 32 |  |
| COc1ccc(C2(c3ccccc3)C=Cc3c(c4ccccc4c4c3oc(=O)c3cc(OC)c(OC)cc34)O2)cc1 (stereo not drawn) [Compound 7A, 6-(4-methoxyphenyl)-6-phenyl-12,13-dimethoxy-10-oxo-6,10-dihydro[2]benzopyrano[3',4':3,4]naphtho(1,2-b)pyran] | 569 | 0.22 | 0.27 ΔOD/min | 54 |  |
| COc1ccc(C2(c3ccccc3)C=Cc3c(c4c5cc(OC)c(OC)cc5c(=O)oc4c4ccccc34)O2)cc1 (stereo not drawn) [Compound 7B, 2-(4-methoxphenyl)-2-phenyl-12,13-dimethoxy-10-oxo-2,10-dihydro[2]benzopyrano[4',3':3,4]naphtho(2,1-b)pyran] | 464 | 0.29 | 0.31 ΔOD/min | 47 |  |
| COc1ccc(C2(c3ccccc3)C=Cc3c4c(c5ccccc5c3O2)-c2cc(OC)c(OC)cc2C(C)(C)O4)cc1 (stereo not drawn) [Compound 8, 6-(4-methoxyphenyl)-6-phenyl-12,13-dimethoxy-10,10-dimethyl-6,10-dihydro[2]benzopyrano [3',4':3,4]naphtho(1,2-b)pyran] | 602 | 0.21 | 0.08 ΔOD/min | 216 |  |
| COc1ccc(C2(c3ccc(OC)cc3)C=Cc3c(c4c5ccc(OC)cc5c(=O)oc4c4ccccc34)O2)cc1 [Compound 9A, 2,2-bis(4-methoxyphenyl)-12-methoxy-10-oxo-2,10-dihydro[2]benzopyrano[4',3':3,4]naphtho(2,1-b)pyran] | 478 | 0.12 | 0.25 ΔOD/min | 24 |  |
